Data from PubChem BioAssay (NCI).
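Growth conditions: 96-well plates. Treatment: test compound, 48 hours, 5 concentrations. Analysis: linear interpolation between bracketing concentrations; unreached endpoints set to highest concentration. TGI: total growth inhibition.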

Tests used:
Experiment in all cases: NCI tumour cell line growth inhibition, 48 h
SK-OV-3 ovarian = system: SK-OV-3 ovarian
OVCAR-8 ovarian = system: OVCAR-8 ovarian
UO-31 renal = system: UO-31 renal
COLO 205 colon = system: COLO 205 colon
HOP-62 NSCLC = system: HOP-62 NSCLC
HCT-116 colon = system: HCT-116 colon
MDA-MB-231 breast = system: MDA-MB-231 breast
MCF7 breast = system: MCF7 breast
TK-10 renal = system: TK-10 renal
HOP-92 NSCLC = system: HOP-92 NSCLC

SMILES: CCCC(Sc1nc(N)nc2nc[nH]c12)C(=O)O (stereo not given)
- TGI (SK-OV-3 ovarian): > 100 µM
- TGI (OVCAR-8 ovarian): > 100 µM
- TGI (UO-31 renal): > 100 µM
- TGI (COLO 205 colon): > 100 µM
- TGI (HOP-62 NSCLC): > 100 µM
- TGI (HCT-116 colon): > 100 µM
- TGI (MDA-MB-231 breast): > 100 µM
- TGI (MCF7 breast): > 100 µM
- TGI (TK-10 renal): 88 µM
- TGI (HOP-92 NSCLC): > 100 µM

SMILES: O=C1COC(c2ccccc2O)=NN1CCCN1CCCC1
- TGI (SK-OV-3 ovarian): > 100 µM
- TGI (OVCAR-8 ovarian): > 100 µM
- TGI (UO-31 renal): > 100 µM
- TGI (COLO 205 colon): > 100 µM
- TGI (HOP-62 NSCLC): > 100 µM
- TGI (HCT-116 colon): > 100 µM
- TGI (MDA-MB-231 breast): > 100 µM
- TGI (MCF7 breast): > 100 µM
- TGI (TK-10 renal): > 100 µM
- TGI (HOP-92 NSCLC): > 100 µM

SMILES: NNC(=O)CC(=O)Nc1ccc(Cl)cc1
- TGI (SK-OV-3 ovarian): > 100 µM
- TGI (OVCAR-8 ovarian): > 100 µM
- TGI (UO-31 renal): > 100 µM
- TGI (COLO 205 colon): > 100 µM
- TGI (HOP-62 NSCLC): > 100 µM
- TGI (HCT-116 colon): > 100 µM
- TGI (MDA-MB-231 breast): > 100 µM
- TGI (MCF7 breast): > 100 µM
- TGI (TK-10 renal): > 100 µM
- TGI (HOP-92 NSCLC): > 100 µM

SMILES: O=C(CCc1cccc(O)c1)NCCc1cccc(O)c1
- TGI (SK-OV-3 ovarian): > 100 µM
- TGI (OVCAR-8 ovarian): > 100 µM
- TGI (UO-31 renal): > 100 µM
- TGI (COLO 205 colon): > 100 µM
- TGI (HOP-62 NSCLC): > 100 µM
- TGI (HCT-116 colon): > 100 µM
- TGI (MDA-MB-231 breast): > 100 µM
- TGI (MCF7 breast): > 100 µM
- TGI (TK-10 renal): > 100 µM
- TGI (HOP-92 NSCLC): > 100 µM

SMILES: CC1=NN(c2cccc(Cl)c2)C2(C1)C(Cl)C(=O)N2c1nc2ccccc2s1 (stereo not given)
- TGI (SK-OV-3 ovarian): 69.1 µM
- TGI (OVCAR-8 ovarian): > 100 µM
- TGI (UO-31 renal): 51.1 µM
- TGI (COLO 205 colon): 31.9 µM
- TGI (HOP-62 NSCLC): 64.8 µM
- TGI (HCT-116 colon): 40.4 µM
- TGI (MDA-MB-231 breast): 41.2 µM
- TGI (MCF7 breast): > 100 µM
- TGI (TK-10 renal): > 100 µM
- TGI (HOP-92 NSCLC): 75.6 µM

SMILES: Cc1c(-c2ccccc2)c(C#N)c2nnn(-c3ccccc3)c(=O)n12
- TGI (SK-OV-3 ovarian): > 100 µM
- TGI (OVCAR-8 ovarian): > 100 µM
- TGI (UO-31 renal): > 100 µM
- TGI (COLO 205 colon): > 100 µM
- TGI (HOP-62 NSCLC): > 100 µM
- TGI (HCT-116 colon): > 100 µM
- TGI (MDA-MB-231 breast): > 100 µM
- TGI (MCF7 breast): > 100 µM
- TGI (TK-10 renal): > 100 µM
- TGI (HOP-92 NSCLC): > 100 µM

SMILES: CC(C)(C)c1cc(C(O)(C(=O)O)C(=O)O)cc(C(C)(C)C)c1O
- TGI (SK-OV-3 ovarian): > 100 µM
- TGI (OVCAR-8 ovarian): > 100 µM
- TGI (UO-31 renal): > 100 µM
- TGI (COLO 205 colon): > 100 µM
- TGI (HOP-62 NSCLC): > 100 µM
- TGI (HCT-116 colon): > 100 µM
- TGI (MDA-MB-231 breast): > 100 µM
- TGI (MCF7 breast): > 100 µM
- TGI (TK-10 renal): > 100 µM
- TGI (HOP-92 NSCLC): > 100 µM

SMILES: COC(=O)c1c(OC(C)=O)ccc2c1c1c(OC(C)=O)c3ccccc3c(OC(C)=O)c1n2Cc1cc(OC)cc(OC)c1
- TGI (SK-OV-3 ovarian): 57.8 µM
- TGI (OVCAR-8 ovarian): > 100 µM
- TGI (UO-31 renal): > 100 µM
- TGI (COLO 205 colon): > 100 µM
- TGI (HOP-62 NSCLC): > 100 µM
- TGI (HCT-116 colon): 78.3 µM
- TGI (MDA-MB-231 breast): > 100 µM
- TGI (MCF7 breast): > 100 µM
- TGI (TK-10 renal): > 100 µM
- TGI (HOP-92 NSCLC): 5.35 µM

SMILES: CCSSCS(C)(=O)=O
- TGI (SK-OV-3 ovarian): > 100 µM
- TGI (OVCAR-8 ovarian): 57.4 µM
- TGI (UO-31 renal): 24.4 µM
- TGI (COLO 205 colon): 23.5 µM
- TGI (HOP-62 NSCLC): > 100 µM
- TGI (HCT-116 colon): > 100 µM
- TGI (MDA-MB-231 breast): > 100 µM
- TGI (MCF7 breast): 68.5 µM
- TGI (TK-10 renal): > 100 µM
- TGI (HOP-92 NSCLC): 73.5 µM

SMILES: CC1(C)C2CCC1(CS(=O)(=O)Nc1ccccc1)C(=O)C2 (stereo not given)
- TGI (SK-OV-3 ovarian): > 100 µM
- TGI (OVCAR-8 ovarian): > 100 µM
- TGI (UO-31 renal): > 100 µM
- TGI (COLO 205 colon): > 100 µM
- TGI (HOP-62 NSCLC): > 100 µM
- TGI (HCT-116 colon): > 100 µM
- TGI (MDA-MB-231 breast): > 100 µM
- TGI (MCF7 breast): > 100 µM
- TGI (TK-10 renal): > 100 µM
- TGI (HOP-92 NSCLC): > 100 µM

SMILES: Cc1cccc2c1C(=O)C1(Cc3ccccc3C1=O)C2 (stereo not given)
- TGI (SK-OV-3 ovarian): > 100 µM
- TGI (OVCAR-8 ovarian): > 100 µM
- TGI (UO-31 renal): 96.2 µM
- TGI (COLO 205 colon): > 100 µM
- TGI (HOP-62 NSCLC): > 100 µM
- TGI (HCT-116 colon): > 100 µM
- TGI (MDA-MB-231 breast): > 100 µM
- TGI (MCF7 breast): > 100 µM
- TGI (TK-10 renal): > 100 µM
- TGI (HOP-92 NSCLC): > 100 µM

SMILES: O=c1c2ccccc2oc2c1ccc1ncccc12
- TGI (SK-OV-3 ovarian): 34.4 µM
- TGI (OVCAR-8 ovarian): > 100 µM
- TGI (UO-31 renal): 40.9 µM
- TGI (COLO 205 colon): 94.4 µM
- TGI (HOP-62 NSCLC): 78.1 µM
- TGI (HCT-116 colon): 45.2 µM
- TGI (MDA-MB-231 breast): > 100 µM
- TGI (MCF7 breast): 27.8 µM
- TGI (TK-10 renal): 32.6 µM
- TGI (HOP-92 NSCLC): 59.3 µM

SMILES: O=C(Nc1ccccc1)c1cc2c(cc1Cl)Sc1nccn1S2(=O)=O
- TGI (SK-OV-3 ovarian): > 100 µM
- TGI (OVCAR-8 ovarian): > 100 µM
- TGI (UO-31 renal): > 100 µM
- TGI (COLO 205 colon): > 56.6 µM
- TGI (HOP-62 NSCLC): > 59.8 µM
- TGI (HCT-116 colon): > 54.4 µM
- TGI (MDA-MB-231 breast): > 81.2 µM
- TGI (MCF7 breast): > 60 µM
- TGI (TK-10 renal): > 100 µM
- TGI (HOP-92 NSCLC): 18.5 µM
